Where “and” joins values, the source holds several entries; their conditions need not be identical. Equal entries are not always repeated. Entries after “also recorded” stand apart in the source; their conditions may differ. Where two headings read alike, the source gives them in different places.
What was measured:
[1] = tested on: Male Sprague-Dawley rats; conditions: for Locomotor activity, % of Tetrabenazine control mean: full hour of recording
Text: No brain tissue was collected from this experiment. […] Each activity monitor consists of a quadratic metal frame equipped with photobeam sensors. […] Each activity monitor is equipped with three rows of infrared photobeam sensors, each row consisting of 16 sensors. […] Photobeam sensors are spaced 2.5 cm apart. Each activity monitor is fitted in an identical sound and light attenuating box (W×L×H—55×55×45) containing a weak house light and a fan. The computer software is written using object oriented programming (LabVIEW™, National instruments, Austin, Tex., USA). Behavioural data from each activity monitor, representing the position (horizontal center of gravity and vertical activity) of the animal at each time, are recorded at a sampling frequency of 25 Hz and collected using a custom written LABView™ application. The data from each recording session are stored and analyzed with respect to distance travelled. Each behavioural recording session lasts 60 min, starting approximately 4 min after the injection of test compound. The results are presented as counts/60 minutes, counts/45 minutes or counts/15 minutes, in arbitrary length units. Statistical comparisons are carried out using Student's t-test against the control group.

[2] = tested on: striatal dopamine; assay: Striatal dopamine (DA) tissue level (HPLC/EC), dose-response in naive rats; type: in vivo, rat; conditions: for DA striatum, dose-response in naive rats: mean ± SEM, percentage of vehicle control group mean
Experimental: (§1) Rats weighed 160-180 g at the time of arrival.
(§2) The treatment groups consisted of Vehicle (saline; NaCl 0.9% v/w) and ACR16 tested at three doses (11; 33 and 100 μmol/kg).
(§3) KR104: Animals were allocated into five different treatment groups, n=4.
(§4) All compounds were injected s.c. four minutes before start of locomotor activity recording at a volume of 5 ml/kg.
(§5) A digital sonifier (Branson Digital Sonifier 250-D) was used to homogenise tissue from the striatum and limbic region. […] All samples were centrifuged at 10.000 rpm for 10 minutes at +4° C. Cortex tissue was filtered in Munktell filter paper 5.5 cm quality 1 F. Tissue eluates were analysed with respect to tissue concentrations (ng/g tissue) of the monoamine transmitter substances (Norepinephrine (NA), dopamine (DA), 5-hydroxytryptamine (5-HT)) as well as their amine metabolites (normetanephrine (NM), 3-methoxytyramine (3-MT)) and acid metabolites ([…] (DOPAC), 5-hydrocyindoleacetic acid (5-HTAA), homovanillic acid (HVA)) by HPLC separations and electrochemical detection (HPLC/EC). Stock standards (DA, NA, 5-HT, 3-MT, DOPAC, HVA, HIAA, 500 μg/ml) and internal standard (AMDA 500 μg/ml) are prepared once every three months. 5-HT and 5HIAA are dissolved in milliQ water. DA, NA, DOPAC, NM, 3-MT and HVA are dissolved in 0.01 M HCl. 5-HT, 5-HIAA, NM and HVA are kept in fridge; DA, DOPAC, NA and 3-MT are kept in freezer.
(§6) Detection potentials relative to Ag/AgCl reference are 0.45 and 0.60V. […] Detection potentials relative to Ag/AgCl reference are 0.45 and 0.65V.

[3] = tested on: Male Sprague-Dawley rats; assay: Spontaneous locomotor activity, dose-response in drug-naive rats; type: in vivo, rat; conditions: for Spontaneous locomotor activity, % of the vehicle control group mean: full hour of recording; for Spontaneous locomotor activity, period 15-60 minutes post dosing (in words) / Spontaneous locomotor activity, initial 15 min (in words): vs vehicle control; for Effect on spontaneous locomotor activity (in words): all doses tested, s.c., 60 min recording; for Spontaneous locomotor activity, initial 15 min (in words): initial 15 min of recording
Experimental: as §1, §2, §3, §4
During measurements of behavioural activity, a rat is put in a transparent acrylic cage with matted black floor (W×L×H, 41×41×30 cm) which in turn is placed in the activity monitor. […] Two rows are placed along the front and the side of the floor of the cage, at a 90 degree angle, and the third row is placed 10 cm above the floor to measure vertical activity. Photobeam sensors are spaced 2.5 cm apart.

[4] = tested on: Arc mRNA; assay: Arc gene expression (Arc mRNA, real-time PCR) in striatum and frontal cortex, interaction with Tetrabenazine
[5] = tested on: striatal DOPAC; assay: Striatal DOPAC tissue level (HPLC/EC), dose-response in naive rats; type: in vivo, rat; conditions: mean ± SEM, percentage of vehicle control group mean
Experimental: as §1, §2, §3, §4, §5, §6

[6] = tested on: striatal dopamine; assay: Striatal dopamine (DA) tissue level (HPLC/EC), interaction with Tetrabenazine; conditions: percentage of Tetrabenazine control group mean
[7] = tested on: striatal DOPAC; assay: Striatal DOPAC tissue level (HPLC/EC), interaction with Tetrabenazine; conditions: percentage of Tetrabenazine control group mean
[8] = tested on: Arc mRNA; assay: Arc gene expression (Arc mRNA, real-time PCR) in striatum and frontal cortex, dose-response studies; type: in vivo, rat
Experimental: as §1, §4
Reference genes are HPRT and cyclophilin.
Correct PCR products are confirmed by agarose gel electroforesis (2%) PCR products are purified with PCR purification kit from Qiagen (Valencia, Calif., USA). All genes are sequenced at MWG, Germany.
For the data shown in FIG. 6, the reverse transcription and PCR were performed as follows:
Reversed transcription is performed by using a ThermoScript kit (Invitrogen).
cDNA of Arc and two reference genes, hypoxanthine-guanine phosphoribosyltransferase (HPRT) and cyclophilin A, was amplified by real-time PCR in either a triplex reaction (Tetrabenazine studies) or three singleplex reactions (studies with Pridopidine and haloperidol).

[9] = 33 μmol/kg s.c. coadministered with Tetrabenazine 0.64 mg/kg
[10] = 100 μmol/kg s.c. coadministered with Tetrabenazine 0.64 mg/kg
[11] = 33 μmol/kg s.c. together with Tetrabenazine 0.64 mg/kg
[12] = 100 μmol/kg s.c. together with Tetrabenazine 0.64 mg/kg
[13] = 0.64 mg/kg s.c., vs vehicle control

Which results are given for `CCCN1CCC(c2cccc(S(C)(=O)=O)c2)CC1` [Pridopidine, 4-(3-Methanesulfonyl-phenyl)-1-propyl-piperidine]?
Locomotor activity, % of Tetrabenazine control mean ([1]; 33 μmol/kg s.c. combined with Tetrabenazine 0.64 mg/kg): 135%; Locomotor activity, % of Tetrabenazine control mean ([1]; 100 μmol/kg s.c. combined with Tetrabenazine 0.64 mg/kg): 137%; Locomotor activity in Tetrabenazine treated rats, 15-60 min (in words) ([1]; 15-60 min period, combined with Tetrabenazine 0.64 mg/kg, vs Tetrabenazine control): this reversing effect reached significance for the Pridopidine 100 μmol/kg dose group; Effect on Tetrabenazine induced locomotor activity reduction (in words) ([1]; combined with Tetrabenazine 0.64 mg/kg s.c.): reversed the behavioural inhibition induced by Tetrabenazine; Locomotor activity in Tetrabenazine treated rats, 0-15 min (in words) ([1]; first 15 min, combined with Tetrabenazine 0.64 mg/kg, vs Tetrabenazine control): this reversing effect reached significance for the Pridopidine 100 μmol/kg dose group; DA striatum, dose-response in naive rats ([2]; 11 μmol/kg s.c.): 104 ± 3%; DA striatum, dose-response in naive rats ([2]; 33 μmol/kg s.c.): 101 ± 3%; DA striatum, dose-response in naive rats ([2]; 100 μmol/kg s.c.): 73 ± 4 %; Spontaneous locomotor activity, % of the vehicle control group mean ([3]; 33 μmol/kg s.c.): 138%; Spontaneous locomotor activity, period 15-60 minutes post dosing (in words) [3]: no significant effects were observed; Effect on spontaneous locomotor activity (in words) [3]: no inhibitory effect on spontaneous locomotor activity; Spontaneous locomotor activity, initial 15 min (in words) [3]: a significant increase (P<0.05) was seen for the 11 μmol/kg Pridopidine dose group; Frontal cortex Arc mRNA, % of the Tetrabenazine control group mean [4, 9]: 125%; Striatal Arc, % of the Tetrabenazine control group mean [4, 9]: 144%; Frontal cortex Arc mRNA, % of the Tetrabenazine control group mean [4, 10]: 193%; Striatal Arc, % of the Tetrabenazine control group mean [4, 10]: 207%; DOPAC striatum, dose-response in naive rats ([5]; 11 μmol/kg s.c.): 117 ± 5 %; DOPAC striatum, dose-response in naive rats ([5]; 33 μmol/kg s.c.): 178 ± 7 %; DOPAC striatum, dose-response in naive rats ([5]; 100 μmol/kg s.c.): 236 ± 17 %; DA striatum, interaction with Tetrabenazine [6, 11]: 91 ± 11%; DA striatum, interaction with Tetrabenazine [6, 12]: 98 ± 8%; DOPAC striatum, interaction with Tetrabenazine [7, 11]: 123 ± 8 ^ %; DOPAC striatum, interaction with Tetrabenazine [7, 12]: 155% and 155 ± 4 %; Arc mRNA in the frontal cortex, % of the vehicle control group mean ([8]; 33 μmol/kg s.c.): 149%; Arc mRNA in the striatum, % of the control group mean ([8]; 33 μmol/kg s.c.): 168%; Arc mRNA in the frontal cortex, % of the vehicle control group mean ([8]; 100 μmol/kg s.c.): 222%; Arc mRNA in the striatum, % of the control group mean ([8]; 100 μmol/kg s.c.): 253%

What does the source list for `COc1cc2c(cc1OC)C1CC(=O)C(CC(C)C)CN1CC2` (stereo not drawn) [Tetrabenazine, (SS,RR)-3-Isobutyl-9,10-dimethoxy-1,3,4,6,7,11b-hexahydro-pyrido[2,1-a]isoquinolin-2-one]?
DA striatum, dose-response in naive rats ([2]; 0.37 mg/kg s.c.): 48 ± 2 %; DA striatum, dose-response in naive rats ([2]; 0.64 mg/kg s.c.): 33 ± 3 %; Striatal dopamine, % of vehicle control group mean ([2]; 0.64 mg/kg, the dose used in the interaction experiments, throughout the studies performed): approximately 50%; DA striatum, dose-response in naive rats ([2]; 1.1 mg/kg s.c.): 20 ± 2 %; Locomotor activity, Tetrabenazine control group vs. vehicle treated controls (in words) ([3]; 0.64 mg/kg s.c., full hour (P<0.001), 0-15 min and 15-60 min (P<0.01), interaction experiment with Pridopidine): significant decrease; Spontaneous locomotor activity, % of the vehicle control group mean ([3]; 1.1 mg/kg s.c.): 40%; Spontaneous locomotor activity, period 15-60 minutes post dosing (in words) [3]: significant effects (P<0.05) were observed at 0.64 and 1.1 mg/kg; Effect on spontaneous locomotor activity (in words) [3]: dose dependently inhibited spontaneous locomotor activity; Spontaneous locomotor activity, initial 15 min (in words) [3]: significant reductions (P<0.05) were seen both for the 1.1 and 0.37 mg/kg; DOPAC striatum, dose-response in naive rats ([5]; 0.37 mg/kg s.c.): 144 ± 8 %; DOPAC striatum, dose-response in naive rats ([5]; 0.64 mg/kg s.c.): 208 ± 14 %; DOPAC striatum, dose-response in naive rats ([5]; 1.1 mg/kg s.c.): 263 ± 19 %; Arc mRNA in the frontal cortex, % of control group mean ([8]; 0.64 mg/kg s.c., trend, p=0.14): 83%; Frontal cortex Arc mRNA, Tetrabenazine alone in the interaction experiments (in words) [8, 13]: significant decrease; also recorded: tended to decrease; Striatal Arc mRNA, Tetrabenazine alone in the interaction experiments (in words) [8, 13]: no significant effect; Arc mRNA in the frontal cortex, % of the vehicle control group mean ([8]; 1.1 mg/kg s.c.): 66%; Arc mRNA in the striatum, % of the vehicle control group mean ([8]; 1.1 mg/kg s.c.): 147%

From patent US11207308B2, “Pharmaceutical compositions for combination therapy” (PRILENIA NEUROTHERAPEUTICS LTD., priority 2012, dated 2021)
